# Patent US20240425479A1, “HALO-SUBSTITUTED AMINO AZA-HETEROARYL COMPOUNDS AS INHIBITORS OF THE HAEMATOPOIETIC PROGENITOR KINASE 1 (HPK1)” (priority 2021, published 2024)
# Target: T1, Recombinant (1-346) HPK1 (h) (Homo sapiens, UniProt Q92918)
# T1 construct: Recombinant (1-346) HPK1 (h) is incubated with 8 mM MOPS pH 7.0
# T1 sequence (Q92918 1-346): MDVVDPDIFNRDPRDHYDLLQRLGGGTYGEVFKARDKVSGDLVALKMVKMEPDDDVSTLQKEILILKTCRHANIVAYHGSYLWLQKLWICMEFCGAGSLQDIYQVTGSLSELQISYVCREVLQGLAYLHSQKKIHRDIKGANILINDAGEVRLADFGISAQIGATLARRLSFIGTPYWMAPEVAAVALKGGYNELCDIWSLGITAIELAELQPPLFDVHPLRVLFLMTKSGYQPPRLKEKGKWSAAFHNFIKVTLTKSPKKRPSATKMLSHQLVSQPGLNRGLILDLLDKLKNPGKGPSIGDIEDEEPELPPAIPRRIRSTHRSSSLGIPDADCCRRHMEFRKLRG
# Assay: HPK1 human STE kinase enzymatic radiometric assay
# Format: biochemical
# Conditions: read-out: HPK1 IC50 nM Range
# Description: (a) HPK1 Human STE Kinase Enzymatic Radiometric Assay
# A stock solution of 10 mM of test compound is prepared in DMSO. The compound plate was prepared by 3-fold and 9-point serial dilutions. Recombinant (1-346) HPK1 (h) is incubated with 8 mM MOPS pH 7.0, 0.2 mM EDTA, 0.33 mg/mL myelin basic protein, 10 mM MgAcetate and [gamma-33P]-ATP (specific activity and concentration as required). The reaction is initiated by the addition of the Mg/ATP mix. After incubation for 40 minutes at RT, the reaction is stopped by the addition of phosphoric acid to a concentration of 0.5%, 10 μL of the reaction is then spotted onto a P30 filtermat and washed four times for 4 minutes in 0.425% phosphoric acid and once in methanol prior to drying and scintillation counting. For more details of kinase assay protocols, see: Gao, Y. et. al.; Biochem J.451 (2): 313-328, 2013.
row,IC50,SMILES
1,0.1 to 10 nM,"Cc1c[nH]c(=O)c2cc(F)c(-c3nc(-c4ccc(N5CCN(C(C)C)CC5)cc4)c(F)nc3N)cc12 [Example I-234, 6-(3-amino-5-fluoro-6-(4-(4-isopropylpiperazin-1-yl)phenyl)pyrazin-2-yl)-7-fluoro-4-methylisoquinolin-1(2H)-one]"
2,0.1 to 10 nM,"CN(C)[C@@H]1COc2ccc(-c3nc(-c4ccc5c(=O)[nH]cc(F)c5c4)c(N)nc3F)cc21 [Example I-251, (S)-6-(3-amino-6-(3-(dimethylamino)-2,3-dihydrobenzofuran-5-yl)-5-fluoropyrazin-2-yl)-4-fluoroisoquinolin-1(2H)-one]"
3,0.1 to 10 nM,"CN(C)Cc1cc(-c2nc(-c3ccc4c(=O)[nH]cc(F)c4c3)c(N)nc2F)cc(F)c1N1CCOCC1 [Example I-265, 6-(3-amino-6-(3-((dimethylamino)methyl)-5-fluoro-4-morpholinophenyl)-5-fluoropyrazin-2-yl)-4-fluoroisoquinolin-1(2H)-one]"
4,0.1 to 10 nM,"CC(C)N1CCN(c2ccc(-c3nc(-c4cc(F)c5c(=O)[nH]cc(Cl)c5c4)c(N)nc3F)cc2)CC1 [Example I-90, 6-(3-amino-5-fluoro-6-(4-(4-isopropylpiperazin-1-yl)phenyl)pyrazin-2-yl)-4-chloro-8-fluoroisoquinolin-1(2H)-one]"
5,11 to 100 nM,"CN(C)[C@@H]1COc2ccc(-c3nc(-c4ccc5c(=O)[nH]ccc5c4)c(N)nc3F)cc21 [Example I-283, (S)-6-(3-amino-6-(3-(dimethylamino)-2,3-dihydrobenzofuran-5-yl)-5-fluoropyrazin-2-yl)isoquinolin-1(2H)-one]"
6,0.1 to 10 nM,"Cc1[nH]c(=O)c2c(F)cc(-c3nc(-c4ccc(N5CCN(CC6CC6)CC5)cc4)c(F)nc3N)cc2c1Cl [Example I-107, 6-(3-amino-6-(4-(4-(cyclopropylmethyl)piperazin-1-yl)phenyl)-5-fluoropyrazin-2-yl)-4-chloro-8-fluoro-3-methylisoquinolin-1(2H)-one]"
7,0.1 to 10 nM,"COC1CN(Cc2cc(-c3nc(-c4ccc5c(c4)CCNC5=O)c(N)nc3F)ccc2N2CCOCC2)C1 [Example I-188, 6-(3-amino-5-fluoro-6-(3-((3-methoxyazetidin-1-yl)methyl)-4-morpholinophenyl)pyrazin-2-yl)-3,4-dihydroisoquinolin-1(2H)-one]"
8,0.1 to 10 nM,"Nc1nc(F)c(-c2ccc(N3CCN(CC4CC4)CC3)cc2)nc1-c1ccc2c(=O)[nH]cc(F)c2c1 [Example I-84, 6-(3-amino-6-(4-(4-(cyclopropylmethyl)piperazin-1-yl)phenyl)-5-fluoropyrazin-2-yl)-4-fluoroisoquinolin-1(2H)-one]"
9,11 to 100 nM,"C[C@@H]1CCCN1Cc1cc(-c2nc(-c3ccc4c(=O)[nH]cc(Cl)c4c3)c(N)nc2F)ccc1C1CCOCC1 [Example I-227, (R)-6-(3-amino-5-fluoro-6-(3-((2-methylpyrrolidin-1-yl)methyl)-4-(tetrahydro-2H-pyran-4-yl)phenyl)pyrazin-2-yl)-4-chloroisoquinolin-1(2H)-one]"
10,0.1 to 10 nM,"CO[C@@H]1CCN(Cc2cc(-c3nc(-c4cc(F)c5c(c4)CCNC5=O)c(N)nc3F)ccc2N2CCOCC2)C1 [Example I-155, (R)-6-(3-amino-5-fluoro-6-(3-((3-methoxypyrrolidin-1-yl)methyl)-4-morpholinophenyl)pyrazin-2-yl)-8-fluoro-3,4-dihydroisoquinolin-1(2H)-one]"
11,0.1 to 10 nM,"Nc1nc(F)c(-c2ccc(N3CCN(C4CCC4)CC3)cc2)nc1-c1cc(F)c2c(c1)CCNC2=O [Example I-47, 6-(3-amino-6-(4-(4-cyclobutylpiperazin-1-yl)phenyl)-5-fluoropyrazin-2-yl)-8-fluoro-3,4-dihydroisoquinolin-1(2H)-one]"
12,0.1 to 10 nM,"CC(C)N1CCN(c2ccc(-c3nc(-c4ccc5c(c4)CCNC5=O)c(N)nc3F)cc2)[C@H](C)C1 [Example I-50, (R)-6-(3-amino-5-fluoro-6-(4-(4-isopropyl-2-methylpiperazin-1-yl)phenyl)pyrazin-2-yl)-3,4-dihydroisoquinolin-1(2H)-one]"
13,11 to 100 nM,"Nc1nc(F)c(-c2ccc(OC3CCOCC3)c(CN3CCC3)c2)nc1-c1cc(F)c2c(c1)CCNC2=O [Example I-210, 6-(3-amino-6-(3-(azetidin-1-ylmethyl)-4-((tetrahydro-2H-pyran-4-yl)oxy)phenyl)-5-fluoropyrazin-2-yl)-8-fluoro-3,4-dihydroisoquinolin-1(2H)-one]"
14,0.1 to 10 nM,"Cc1c[nH]c(=O)c2ccc(-c3nc(-c4ccc(C5CCOCC5)c(CN5CCC5)c4)c(F)nc3N)cc12 [Example I-206, 6-(3-amino-6-(3-(azetidin-1-ylmethyl)-4-(tetrahydro-2H-pyran-4-yl)phenyl)-5-fluoropyrazin-2-yl)-4-methylisoquinolin-1(2H)-one]"
15,11 to 100 nM,"Nc1nc(F)c(-c2ccc(N3CCOCC3)c(CN3CCCCC3)c2)nc1-c1ccc2c(c1)CCNC2=O [Example I-185, 6-(3-amino-5-fluoro-6-(4-morpholino-3-(piperidin-1-ylmethyl)phenyl)pyrazin-2-yl)-3,4-dihydroisoquinolin-1(2H)-one]"
16,11 to 100 nM,"Cc1nc2cc(-c3nc(-c4ccc(N5C[C@@H](C)O[C@@H](C)C5)c(CN(C)C)c4)c(F)nc3N)ccc2c(=O)[nH]1 [Example I-194, 7-(3-amino-6-(3-((dimethylamino)methyl)-4-((2R,6S)-2,6-dimethylmorpholino)phenyl)-5-fluoropyrazin-2-yl)-2-methylquinazolin-4(3H)-one]"
17,0.1 to 10 nM,"Nc1nc(F)c(-c2ccc(N3CCOCC3)c(CN3CCCC3)c2)nc1-c1ccc2c(=O)[nH]ccc2c1 [Example I-114, 6-(3-amino-5-fluoro-6-(4-morpholino-3-(pyrrolidin-1-ylmethyl)phenyl)pyrazin-2-yl)isoquinolin-1(2H)-one]"
18,0.1 to 10 nM,"CCN(C)Cc1cc(-c2nc(-c3ccc4c(=O)[nH]cc(C)c4c3)c(N)nc2F)ccc1C1CCOCC1 [Example I-239, 6-(3-amino-6-(3-((ethyl(methyl)amino)methyl)-4-(tetrahydro-2H-pyran-4-yl)phenyl)-5-fluoropyrazin-2-yl)-4-methylisoquinolin-1(2H)-one]"
19,11 to 100 nM,"CN(C)Cc1cc(-c2nc(-c3ccc4c(=O)[nH]cc(F)c4c3)c(N)nc2F)c(F)cc1N1CCOCC1 [Example I-259, 6-(3-amino-6-(5-((dimethylamino)methyl)-2-fluoro-4-morpholinophenyl)-5-fluoropyrazin-2-yl)-4-fluoroisoquinolin-1(2H)-one]"
20,0.1 to 10 nM,"CC(C)N1CCN(c2ccc(-c3nc(-c4cc5c(cc4F)C(=O)NCC5)c(N)nc3F)cc2)[C@H](C)C1 [Example I-51, (R)-6-(3-amino-5-fluoro-6-(4-(4-isopropyl-2-methylpiperazin-1-yl)phenyl)pyrazin-2-yl)-7-fluoro-3,4-dihydroisoquinolin-1(2H)-one]"
21,11 to 100 nM,"C[C@H]1CCCN1Cc1cc(-c2nc(-c3ccc4c(=O)[nH]cc(Cl)c4c3)c(N)nc2F)ccc1C1CCOCC1 [Example I-229, (S)-6-(3-amino-5-fluoro-6-(3-((2-methylpyrrolidin-1-yl)methyl)-4-(tetrahydro-2H-pyran-4-yl)phenyl)pyrazin-2-yl)-4-chloroisoquinolin-1(2H)-one]"
22,0.1 to 10 nM,"Cc1c[nH]c(=O)c2ccc(-c3nc(-c4ccc(N5CCOCC5)c(CN5CCC5)c4)c(F)nc3N)cc12 [Example I-202, 6-(3-amino-6-(3-(azetidin-1-ylmethyl)-4-morpholinophenyl)-5-fluoropyrazin-2-yl)-4-methylisoquinolin-1(2H)-one]"
23,11 to 100 nM,"CN(C)Cc1cc(-c2nc(-c3ccc4c(c3)CCNC4=O)c(N)nc2F)cnc1N1CCOCC1 [Example I-237, 6-(3-amino-6-(5-((dimethylamino)methyl)-6-morpholinopyridin-3-yl)-5-fluoropyrazin-2-yl)-3,4-dihydroisoquinolin-1(2H)-one]"
24,11 to 100 nM,"Cc1nc2cc(-c3nc(-c4ccc(N5CCN(C6CCC6)CC5)cc4)c(F)nc3N)ccc2c(=O)[nH]1 [Example I-76, 7-(3-amino-6-(4-(4-cyclobutylpiperazin-1-yl)phenyl)-5-fluoropyrazin-2-yl)-2-methylquinazolin-4(3H)-one]"
25,0.1 to 10 nM,"Cc1[nH]c(=O)c2ccc(-c3nc(-c4ccc(N5CCN(CC6CC6)CC5)cc4)c(F)nc3N)cc2c1F [Example I-106, 6-(3-amino-6-(4-(4-(cyclopropylmethyl)piperazin-1-yl)phenyl)-5-fluoropyrazin-2-yl)-4-fluoro-3-methylisoquinolin-1(2H)-one]"
26,0.1 to 10 nM,"COCCN(C)Cc1cc(-c2nc(-c3ccc4c(c3)CCNC4=O)c(N)nc2F)ccc1N1CCOCC1 [Example I-160, 6-(3-amino-5-fluoro-6-(3-(((2-methoxyethyl)(methyl)amino)methyl)-4-morpholinophenyl)pyrazin-2-yl)-3,4-dihydroisoquinolin-1(2H)-one]"
